Test results as given in ChEMBL document CHEMBL1138648, “Synthesis of new N-(2-(trifluoromethyl)pyridin-4-yl)anthranilic acid derivatives and their evaluation as anticancer agents” (2004).

Columns and labels:
Assay type in all cases: functional
MCF7 [1] = assay: In vitro percent of proliferation of vehicle treated MCF-7 human breast cell lines was determined at 0.0010 M concentration
SF-268 [2] = assay: In vitro percent of proliferation of vehicle treated SF-268 human CNS cell lines was determined at 0.0010 M concentration
NCI-H460 [3] = assay: In vitro percent of proliferation of vehicle treated NCI-H460 human lung cell lines was determined at 0.0010 M concentration
A498 = assay: Growth inhibitory activity against Renal cancer A498 cell line was determined; conditions: Homo sapiens
HOP-92 = assay: Growth inhibitory activity against non small cell lung cancer HOP-92 cell line was determined; conditions: Homo sapiens
NCI/ADR-RES = assay: Growth inhibitory activity against Breast cancer NCI/ADR-RES cell line was determined; conditions: Homo sapiens
M14 = assay: Growth inhibitory activity against Melanoma M14 cell line was determined; conditions: Homo sapiens
Hs-578T = assay: Growth inhibitory activity against Breast cancer HS 578T cell line was determined; conditions: Homo sapiens
SW-620 = assay: Growth inhibitory activity against colon cancer SW-620 cell line was determined; conditions: Homo sapiens
TK-10 = assay: Growth inhibitory activity against Renal cancer TK-10 cell line was determined; conditions: Homo sapiens
HCC 2998 = assay: Growth inhibitory activity against colon cancer HCC2998 cell line was determined; conditions: Homo sapiens
PC-3 = assay: Growth inhibitory activity against Prostate cancer PC-3 cell line was determined; conditions: Homo sapiens
HCT-15 = assay: Growth inhibitory activity against colon cancer HCT-15 cell line was determined; conditions: Homo sapiens
RPMI-8226 = assay: Growth inhibitory activity against Leukemia RPMI-8226 cell line was determined; conditions: Homo sapiens
KM12 = assay: Growth inhibitory activity against colon cancer KM12 cell line was determined; conditions: Homo sapiens
ACHN = assay: Growth inhibitory activity against Renal cancer ACHN cell line was determined; conditions: Homo sapiens
OVCAR-5 = assay: Growth inhibitory activity against Ovarian cancer OVCAR-5 cell line was determined; conditions: Homo sapiens
HL-60 = assay: Growth inhibitory activity against Leukemia HL-60(TB) cell line was determined; conditions: Homo sapiens
SK-MEL-5 = assay: Growth inhibitory activity against Melanoma SK-MEL-5 cell line was determined; conditions: Homo sapiens
CAKI-1 = assay: Growth inhibitory activity against Renal cancer CAKI-1 cell line was determined; conditions: Homo sapiens
NCI-H522 = assay: Growth inhibitory activity against non small cell lung cancer H522 cell line was determined; conditions: Homo sapiens
MDA-MB-435 = assay: Growth inhibitory activity against Breast cancer MDA-MB-435 cell line was determined; conditions: Homo sapiens
SN12C = assay: Growth inhibitory activity against Renal cancer SN12C cell line was determined; conditions: Homo sapiens
CCRF-CEM = assay: Growth inhibitory activity against Leukemia CCRF-CEM cell line was determined; conditions: Homo sapiens
BT-549 = assay: Growth inhibitory activity against Breast cancer BT-549 cell line was determined; conditions: Homo sapiens
NCI-H226 = assay: Growth inhibitory activity against non small cell lung cancer NCI-H226 cell line was determined; conditions: Homo sapiens
NCI-H322M = assay: Growth inhibitory activity against non small cell lung cancer NCI-H322M cell line was determined; conditions: Homo sapiens
A549 = assay: Growth inhibitory activity against non small cell lung cancer A549/ATCC cells; conditions: Homo sapiens
UACC-62 = assay: Growth inhibitory activity against Melanoma UACC-62 cell line was determined; conditions: Homo sapiens
MOLT-4 = assay: Growth inhibitory activity against Leukemia MOLT-4 cell line was determined; conditions: Homo sapiens
NCI-H460 [4] = assay: Growth inhibitory activity against non small cell lung cancer H460 cell line was determined; conditions: Homo sapiens
SF-539 = assay: Growth inhibitory activity against CNS cancer SF-539 cell line was determined; conditions: Homo sapiens
NCI-H23 = assay: Growth inhibitory activity against non small cell lung cancer NCI-H23 cell line was determined; conditions: Homo sapiens
OVCAR-3 = assay: Growth inhibitory activity against Ovarian cancer OVCAR-3 cell line was determined; conditions: Homo sapiens
SF-268 [5] = assay: Growth inhibitory activity against CNS cancer SF-268 cell line was determined; conditions: Homo sapiens
EKVX = assay: Growth inhibitory activity against non small cell lung cancer EKVX cell line was determined; conditions: Homo sapiens
UACC-257 = assay: Growth inhibitory activity against Melanoma UACC-257 cell line was determined; conditions: Homo sapiens
MCF7 [6] = assay: Growth inhibitory activity against Breast cancer MCF-7 cell line was determined; conditions: Homo sapiens
SR = assay: Growth inhibitory activity against Leukemia SR cell line was determined; conditions: Homo sapiens
DU-145 = assay: Growth inhibitory activity against Prostate cancer DU-145 cell line was determined; conditions: Homo sapiens
786-0 = assay: Growth inhibitory activity against Renal cancer 786-0 cell line was determined; conditions: Homo sapiens
OVCAR-8 = assay: Growth inhibitory activity against Ovarian cancer OVCAR-8 cell line was determined; conditions: Homo sapiens
SF-295 = assay: Growth inhibitory activity against CNS cancer SF-295 cell line was determined; conditions: Homo sapiens
K562 = assay: Growth inhibitory activity against Leukemia K-562 cell line was determined; conditions: Homo sapiens
MDA-MB-231 = assay: Growth inhibitory activity against Breast cancer MDA-MB-231/ATCC cell line was determined; conditions: Homo sapiens

CCOC(=O)c1ccccc1Nc1ccnc(C(F)(F)F)c1
Proliferation (MCF7 [1]): 98%
Proliferation (SF-268 [2]): 103%
Proliferation (NCI-H460 [3]): 102%

O=C(Oc1ccc(Cl)cc1Cl)c1ccccc1Nc1ccnc(C(F)(F)F)c1
GI50 (A498): 21 µM
GI50 (HOP-92): 12 µM
Proliferation (MCF7 [1]): 3%
GI50 (NCI/ADR-RES): 3.6 µM
GI50 (M14): 1900 nM
GI50 (Hs-578T): 25 µM
GI50 (SW-620): 4.6 µM
Proliferation (SF-268 [2]): 9%
Proliferation (NCI-H460 [3]): 1%
GI50 (TK-10): 4.1 µM
GI50 (HCC 2998): 3.2 µM
GI50 (PC-3): 8.3 µM
GI50 (HCT-15): 2200 nM
GI50 (RPMI-8226): 2400 nM
GI50 (KM12): 3.7 µM
GI50 (ACHN): 13 µM
GI50 (OVCAR-5): 7.9 µM
GI50 (HL-60): 6.6 µM
GI50 (SK-MEL-5): 2.8 µM
GI50 (CAKI-1): 2100 nM
GI50 (NCI-H522): 4.6 µM
GI50 (MDA-MB-435): 2900 nM
GI50 (SN12C): 3000 nM
GI50 (CCRF-CEM): 3.5 µM
GI50 (BT-549): 6.8 µM
GI50 (NCI-H226): 3.4 µM
GI50 (NCI-H322M): 14 µM
GI50 (A549): 11 µM
GI50 (UACC-62): 2300 nM
GI50 (MOLT-4): 100 µM
GI50 (NCI-H460 [4]): 4.3 µM
GI50 (SF-539): 3.8 µM
GI50 (NCI-H23): 3.5 µM
GI50 (OVCAR-3): 11 µM
GI50 (SF-268 [5]): 3.1 µM
GI50 (EKVX): 19 µM
GI50 (UACC-257): 11 µM
GI50 (MCF7 [6]): 3.6 µM
GI50 (SR): 770 nM
GI50 (DU-145): 16 µM
GI50 (786-0): 1900 nM
GI50 (OVCAR-8): 4.8 µM
GI50 (SF-295): 15 µM
GI50 (K562): 3 µM
GI50 (MDA-MB-231): 2200 nM

COc1ccc(OC(=O)c2ccccc2Nc2ccnc(C(F)(F)F)c2)cc1
Proliferation (MCF7 [1]): 74%
Proliferation (SF-268 [2]): 105%
Proliferation (NCI-H460 [3]): 49%

O=C(Nc1ccncc1)c1ccccc1Nc1ccnc(C(F)(F)F)c1
Proliferation (MCF7 [1]): 79%
Proliferation (SF-268 [2]): 96%
Proliferation (NCI-H460 [3]): 99%

O=C(Nc1ccccn1)c1ccccc1Nc1ccnc(C(F)(F)F)c1
Proliferation (MCF7 [1]): 66%
Proliferation (SF-268 [2]): 94%
Proliferation (NCI-H460 [3]): 86%

COC(=O)c1ccccc1Nc1ccnc(C(F)(F)F)c1
Proliferation (MCF7 [1]): 96%
Proliferation (SF-268 [2]): 103%
Proliferation (NCI-H460 [3]): 100%

O=C(Oc1ccc(Cl)cc1)c1ccccc1Nc1ccnc(C(F)(F)F)c1
GI50 (HOP-92): 21 µM
Proliferation (MCF7 [1]): 24%
GI50 (NCI/ADR-RES): 16 µM
GI50 (M14): 2100 nM
GI50 (Hs-578T): 30 µM
GI50 (SW-620): 6.6 µM
Proliferation (SF-268 [2]): 28%
Proliferation (NCI-H460 [3]): 9%
GI50 (TK-10): 18 µM
GI50 (HCC 2998): 13 µM
GI50 (PC-3): 17 µM
GI50 (HCT-15): 2100 nM
GI50 (RPMI-8226): 2900 nM
GI50 (KM12): 8.9 µM
GI50 (ACHN): 11 µM
GI50 (OVCAR-5): 26 µM
GI50 (HL-60): 6.4 µM
GI50 (SK-MEL-5): 17 µM
GI50 (CAKI-1): 2300 nM
GI50 (NCI-H522): 4.3 µM
GI50 (MDA-MB-435): 2100 nM
GI50 (SN12C): 3000 nM
GI50 (CCRF-CEM): 4.9 µM
GI50 (BT-549): 15 µM
GI50 (NCI-H226): 2.9 µM
GI50 (NCI-H322M): 17 µM
GI50 (A549): 15 µM
GI50 (UACC-62): 2600 nM
GI50 (MOLT-4): 100 µM
GI50 (NCI-H460 [4]): 10 µM
GI50 (SF-539): 15 µM
GI50 (NCI-H23): 2.8 µM
GI50 (OVCAR-3): 11 µM
GI50 (SF-268 [5]): 4.4 µM
GI50 (EKVX): 25 µM
GI50 (UACC-257): 4.5 µM
GI50 (MCF7 [6]): 3.7 µM
GI50 (SR): 4000 nM
GI50 (DU-145): 19 µM
GI50 (786-0): 2700 nM
GI50 (OVCAR-8): 4.1 µM
GI50 (SF-295): 63 µM
GI50 (K562): 3.6 µM
GI50 (MDA-MB-231): 1800 nM
